Entries after “also recorded” stand apart in the source; their conditions may differ. Values belong to the substance of their own block, whether it stands above or below them.
Key:
[1] = molecular target: CI-MPR; design: method as in PMID 30843882; details: rhGAA with higher M6P content; read-out: apparent KD; cited from earlier work
[2] = tested on: GAA-deficient multinucleated myotubes (KO); experiment: Cell-associated GAA activity in treated GAA KO myotubes; assay type: cell-based, mouse; details: 5 μM for 24 hours, n = 5, versus untreated cells
Text: To evaluate the effect of the Endo-A (69) and Endo-F3 (70) remodeled rhGAA in the disease-relevant muscle cells, we used GAA-deficient multinucleated myotubes (KO) as an in vitro cell model system for Pompe disease.[48,49] These myotubes are formed from conditionally immortalized myoblasts derived from the GAA knockout mice; unlike myoblasts, the differentiated myotubes replicate the primary defect of the disease, namely, the enlargement of glycogen-laden lysosomes.
The available anti-human GAA antibodies detected a strong non-specific band in mouse muscle cells as indicated by its presence in both WT and GAA-deficient cell (Fig. 4b, right panel). Previous studies have shown that the mature 76 kDa form of GAA has a higher affinity and activity towards glycogen.[31,50] […]
BIAcore T200 evaluation software. rhGAA enzyme activity assay. The enzyme activity was assayed by using the substrate 4-methylumbelliferyl-α-D-glucopyranoside (4-MUG) (Sigma-Aldrich) which generates fluorescence on digestion.[9, 10] […] The reaction was monitored at 0 min, 1 min, 2 min, 5 min, 10 min and 15 min by taking 20 μL of aliquot and add ing 50 μL of stop buffer (100 mM glycine/NaOH, pH 11). Fluorescence was measured by a spectrophotometer with 355 nm excitation and 460 nm emission, and the error bar was based on three independent assays. […]

[3] = molecular target: T1, Recombinant human IGF-II R (CI-MPR) (Homo sapiens, UniProt P11717); experiment: SPR binding to immobilized CI-MPR; details: SPR, immobilized CI-MPR
T1 construct: purchased R&D Systems
T1 sequence (P11717 41-2491): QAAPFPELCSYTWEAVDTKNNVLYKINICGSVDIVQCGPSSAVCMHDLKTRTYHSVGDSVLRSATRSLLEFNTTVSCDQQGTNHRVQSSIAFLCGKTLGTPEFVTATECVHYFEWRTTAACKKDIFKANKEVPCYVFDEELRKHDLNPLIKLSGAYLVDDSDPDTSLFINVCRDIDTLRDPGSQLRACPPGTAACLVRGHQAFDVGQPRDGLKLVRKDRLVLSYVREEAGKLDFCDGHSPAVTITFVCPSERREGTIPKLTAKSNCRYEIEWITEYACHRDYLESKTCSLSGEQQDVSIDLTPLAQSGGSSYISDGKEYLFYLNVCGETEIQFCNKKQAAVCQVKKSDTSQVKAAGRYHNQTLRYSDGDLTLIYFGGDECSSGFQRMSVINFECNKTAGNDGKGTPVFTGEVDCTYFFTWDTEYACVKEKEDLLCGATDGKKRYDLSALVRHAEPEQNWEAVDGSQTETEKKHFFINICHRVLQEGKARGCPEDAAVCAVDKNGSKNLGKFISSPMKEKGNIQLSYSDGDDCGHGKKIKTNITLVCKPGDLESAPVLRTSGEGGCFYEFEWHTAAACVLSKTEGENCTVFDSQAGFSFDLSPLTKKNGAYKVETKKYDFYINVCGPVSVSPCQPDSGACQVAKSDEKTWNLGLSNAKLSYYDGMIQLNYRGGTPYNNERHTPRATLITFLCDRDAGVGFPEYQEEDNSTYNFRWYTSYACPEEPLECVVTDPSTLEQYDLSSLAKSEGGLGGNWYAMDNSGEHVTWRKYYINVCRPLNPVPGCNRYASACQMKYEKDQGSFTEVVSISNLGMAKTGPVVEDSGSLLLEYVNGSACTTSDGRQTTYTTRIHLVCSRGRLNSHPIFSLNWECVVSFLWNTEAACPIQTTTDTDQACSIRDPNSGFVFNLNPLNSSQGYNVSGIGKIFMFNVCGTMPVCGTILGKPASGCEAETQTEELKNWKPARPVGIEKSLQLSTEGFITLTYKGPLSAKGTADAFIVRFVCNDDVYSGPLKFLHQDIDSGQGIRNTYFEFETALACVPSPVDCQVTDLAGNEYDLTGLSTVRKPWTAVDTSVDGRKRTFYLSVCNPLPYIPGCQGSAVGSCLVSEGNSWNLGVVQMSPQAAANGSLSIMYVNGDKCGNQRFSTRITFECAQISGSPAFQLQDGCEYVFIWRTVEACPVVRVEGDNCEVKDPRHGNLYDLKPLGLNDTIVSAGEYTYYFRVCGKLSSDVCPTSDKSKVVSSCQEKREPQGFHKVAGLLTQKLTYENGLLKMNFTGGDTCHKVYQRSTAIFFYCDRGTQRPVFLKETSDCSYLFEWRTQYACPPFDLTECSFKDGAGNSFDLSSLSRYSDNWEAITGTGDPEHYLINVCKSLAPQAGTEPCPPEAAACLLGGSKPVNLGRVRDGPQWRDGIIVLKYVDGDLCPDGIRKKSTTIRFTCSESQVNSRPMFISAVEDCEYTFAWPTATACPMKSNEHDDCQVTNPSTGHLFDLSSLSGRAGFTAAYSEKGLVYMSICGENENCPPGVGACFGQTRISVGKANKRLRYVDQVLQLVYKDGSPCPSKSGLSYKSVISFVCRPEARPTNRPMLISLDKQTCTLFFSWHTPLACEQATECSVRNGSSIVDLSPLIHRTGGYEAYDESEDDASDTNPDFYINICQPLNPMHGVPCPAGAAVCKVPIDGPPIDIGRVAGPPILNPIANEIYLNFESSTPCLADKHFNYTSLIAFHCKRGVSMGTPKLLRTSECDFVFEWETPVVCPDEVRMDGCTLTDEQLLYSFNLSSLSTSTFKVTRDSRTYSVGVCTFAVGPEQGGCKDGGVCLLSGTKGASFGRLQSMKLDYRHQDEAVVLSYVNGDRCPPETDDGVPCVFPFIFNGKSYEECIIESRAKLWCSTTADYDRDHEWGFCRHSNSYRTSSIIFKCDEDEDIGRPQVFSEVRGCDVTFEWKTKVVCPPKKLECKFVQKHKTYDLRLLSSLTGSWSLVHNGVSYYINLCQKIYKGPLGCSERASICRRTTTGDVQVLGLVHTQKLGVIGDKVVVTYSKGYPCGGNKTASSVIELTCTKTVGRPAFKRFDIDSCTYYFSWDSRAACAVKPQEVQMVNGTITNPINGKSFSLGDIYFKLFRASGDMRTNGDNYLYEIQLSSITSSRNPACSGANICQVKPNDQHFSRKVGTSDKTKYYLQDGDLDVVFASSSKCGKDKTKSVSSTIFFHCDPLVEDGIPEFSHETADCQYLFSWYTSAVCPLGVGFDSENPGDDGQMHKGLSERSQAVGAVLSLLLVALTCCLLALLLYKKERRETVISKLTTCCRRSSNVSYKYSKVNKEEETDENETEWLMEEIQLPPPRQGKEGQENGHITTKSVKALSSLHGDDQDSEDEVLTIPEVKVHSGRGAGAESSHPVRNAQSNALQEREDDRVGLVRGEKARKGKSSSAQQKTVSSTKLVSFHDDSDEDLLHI
Description: Surface Plasmon Resonance (SPR) Measurements. SPR measurements were performed on a Biacore T200 instrument (GE Healthcare). Recombinant human IGF-II R (CI-MPR) was purchased
from R&D Systems. Approximately 7000 resonance units (RU) of CI-MPR was immobilized on a
CM5 sensor chip in a sodium acetate buffer (25 μg/mL, pH 4.0) at 25 °C, using the amine coupling kit
provided by the manufacturer. Mannose 6-phosphate containing glycopeptides or glycoproteins were
determined at 25 °C under a flow rate of 10 μL/min. HBS-P+ buffer (10 mM HEPES, 150 mM NaCl,
0.05% surfactant P20, pH 7.4) was used as sample buffer and running buffer. Association was
measured for 3 min and dissociation for 10 min at same flow rate (10 μL/min). The surface
and glycoprotein analytes flowed over an immobilized chip with 2-fold serial dilution of the highest
concentration of 4 μM (for glycopeptides) or 1 μM (for RNase B) or 250 nM (for rhGAA).
analyses were performed by global fitting of the binding data to a 1:1 Langmuir binding model using

[4] = tested on: GAA-deficient multinucleated myotubes (KO); experiment: Lamp1 immunostaining of myotubes (lysosomal swelling); assay type: cell-based, mouse; details: 5 μM for 24 hours, confocal images
Text: The effect of the Endo-A and Endo-F3 remodeled rhGAA was confirmed by immunostaining of myotubes with Lamp1. […] The therapeutic potential of the M6P glycan-remodeled rhGAA in lysosomal glycogen reduction and reversal of muscle pathology will be further evaluated in Pompe disease animal models in future studies.
Fig. 5 Effect of the therapeutic enzymes on lysosomal swelling and glycogen content in GAA KO (KO) myotubes. […] Nuclei are stained with DAPI (blue). Bar: 10 μm. (b) Graph illustrates glycogen levels measured in cell lysates from WT, untreated- and treated KO myotubes. […] Statistical significance was determined by one-way ANOVA; graph represents mean ± SD. **p <0.01; ****p <0.0001; ns – statistically insignificant.
(§1) Measurement of cell-associated GAA activity. The GAA activity in the cells was measured by using 4-methylumbelliferyl-α-D-glucopyranoside (4-MU- α-glucopyranoside; Sigma-Aldrich #M9766) as the fluorogenic GAA substrate as described.[13] […] Fluorescence was measured on a multi-label plate reader (TECAN, SPARK 10M) at 360 nm excitation/465 nm emission.
(§2) Measurement of the glycogen content. The glycogen content was measured as the amount of glucose released after glycogen digestion with Aspergillus Niger amyloglucosidase (Sigma-Aldrich). […]

[5] = tested on: GAA-deficient multinucleated myotubes (KO); experiment: Western blot (anti-human GAA) of treated muscle cell lysates; assay type: cell-based, mouse; details: 5 μM for 24 hours, Western blot with anti-human GAA antibodies
Description: The available anti-human GAA antibodies detected a strong non-specific band in mouse muscle cells as indicated by its presence in both WT and GAA-deficient cell (Fig. 4b, right panel). Previous studies have shown that the mature 76 kDa form of GAA has a higher affinity and activity towards glycogen.[31,50]
Fig. 4 Effect of the therapeutic enzymes in GAA KO (KO) myotubes. […] GAA activity in cell lysates of wild type (WT) myotubes was measured for comparison. The KO cells were treated for 24 hours with 5 μM of each of the recombinant enzyme; n = 5 for each condition. Statistical significance was determined by one-way ANOVA; graph represents mean ± SD. *p <0.05; ****p <0.0001; ns – statistically insignificant. (b) Western blot analysis (with anti-human GAA antibodies) of muscle cell lysates treated with the recombinant enzymes; GAPDH was used as loading control. […]
as §1, §2

[6] = tested on: GAA-deficient multinucleated myotubes (KO); experiment: Western blot of lysosomal (LAMP1) and endosomal (Rab5) markers; assay type: cell-based, mouse; details: 5 μM for 24 hours

Substance: ATB200: a novel rhGAA carrying a higher M6P content
Kd [1]: 2 to 4 nM

Kd ([3]; 25 °C, average of three independent experiments): 14 ± 3.7 nM
Substance: Lumizyme: recombinant human acid α-glucosidase (rhGAA; Lumizyme, Sanofi Genzyme) used for treatment of Pompe disease
GAA activity in cell lysates [2]: only a slight increase (statistically insignificant)
enlarged LAMP1-positive lysosomes [4]: Enlarged lysosomes were seen; also recorded: can be detected
processed, mature lysosomal form of rhGAA (76 kDa) in cells [5]: barely detectable
levels of endosomal (Rab5) and lysosomal (LAMP1) markers [6]: remained the same as in the untreated GAA-deficient cells

affinity for CI-MPR (in words) [3]: lost its binding affinity
Substance: deglycosylated rhGAA: rhGAA treated with wild-type Endo-A to remove the high-mannose N-glycans including the M6P glycans
